IC50 data for 69 molecules are collected here from patent US20110053897A1 (IRM LLC, priority 2009, published 2011).

Structures are written as SMILES.

One assay deals with T1, Syk kinase (Homo sapiens, UniProt P43405).
T1 construct: purchased
As to the kind of experiment: Syk kinase inhibition, Caliper LabChip off-chip mobility-shift kinase assay. It counts as biochemical. The conditions noted are these: Caliper LabChip assay; read-out: Syk Enzyme IC50. An outline of the steps:
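Purified Syk pre-incubated 15 min with compound in 100 mM HEPES pH 7.5, 1 mM DTT, 10 mM MgCl2 or MnCl2, 0.002% Brij-35, then 1.5 μM fluorescein peptide and ATP at apparent KM added; 1–1.5 h at room temperature, 4% DMSO, EDTA stop. Microfluidic mobility-shift product/substrate conversion gave % inhibition; IC50 from 12-point series (10–0.00003 μM) by 4-parameter fit.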
One may read the IC50 as the concentration that inhibits the measured activity by half. For `CC[C@@H](CO)Nc1nc(Nc2cc(C)ccn2)cc2ccn(CC)c(=O)c12` [compound 597], the IC50 was 0.081 µM.

On to `CC[C@H](CO)Nc1nc(Nc2cc(C)ccn2)cc2ccn(CC)c(=O)c12` [compound 598], for which the IC50 worked out at 0.518 µM.

For `Cc1ccnc(Nc2cc3ccn(CCO)c(=O)c3c(NC3(C)CCC3)n2)c1` [compound 599], the concentration for half-maximal inhibition (IC50) was 0.286 µM.

`CC(C)(C)Nc1nc(Nc2cc(CN3CCOCC3)ccn2)cc2ccn(CCO)c(=O)c12` [compound 603]: the IC50 amounted to 0.056 µM.

In the case of `CC(C)(C)Nc1nc(Nc2cc(CN3CCCCC3)ccn2)cc2ccn(CCO)c(=O)c12` [compound 604], the IC50 is 0.251 µM.

With `CC(C)(C)Nc1nc(Nc2cc(CNC3COC3)ccn2)cc2ccn(CCO)c(=O)c12` [compound 605], the IC50 worked out at 0.216 µM.

Regarding `CC(C)(C)Nc1nc(Nc2cc(CNCCO)ccn2)cc2ccn(CCO)c(=O)c12` [compound 608], the IC50 was under 0.00565 µM.

As for `CC1(O)CN(Cc2cc(Nc3cc4ccn(CCO)c(=O)c4c(NC(C)(C)C)n3)ncc2F)C1` [compound 610], the IC50 stood at 0.37 µM.

Regarding `CC(C)(C)Nc1nc(Nc2cc(CN3CC(O)C3)c(F)cn2)cc2ccn(CCO)c(=O)c12` [compound 611], the IC50 is 0.251 µM.

The same assay, now with this note: read-out: Syk Enzyme IC50.
As to `[2H]C([2H])([2H])n1ccc2cc(Nc3cc(C)c(F)cn3)nc(NC(C)(C)C)c2c1=O` [compound 531], the IC50 worked out at 0.296 µM.

`CCCCNc1nc(Nc2cc(C)ccn2)cc2cc[nH]c(=O)c12` [compound 532]: the IC50 worked out at 0.25 µM.

For the molecule `Cc1cccnc1Nc1cc2cc[nH]c(=O)c2c(Nc2ccc(N3CCOCC3)cc2)n1` [compound 533], the IC50 was 0.382 µM.

As to `Cc1ccnc(Nc2cc3ccn(C)c(=O)c3c(NC3CC3)n2)c1` [compound 534], the IC50 stood at 0.129 µM.

For `Cc1ccnc(Nc2cc3cc[nH]c(=O)c3c(NC3CC3)n2)c1` [compound 535], the IC50 is 0.206 µM.

In the case of `CCN1CCN(CCc2ccc(Nc3nc(Nc4ccc(Cl)cn4)cc4cc[nH]c(=O)c34)cc2)CC1` [compound 536], the IC50 amounted to 0.398 µM.

In the case of `[2H]C([2H])([2H])n1ccc2cc(Nc3cc(C)c(Cl)cn3)nc(NC(C)(C)C)c2c1=O` [compound 537], the IC50 came to 0.502 µM.

Turning to `Cc1cc(Nc2nc(Nc3ccc(C(N)=O)cn3)cc3cc[nH]c(=O)c23)ccc1N1CCO[C@H](C)C1` [compound 538], the IC50 stood at 0.361 µM.

`Cc1ccnc(Nc2cc3cc[nH]c(=O)c3c(NC[C@@H](O)c3cccc(Cl)c3)n2)c1` [compound 539]: the IC50 came out at 0.915 µM.

Regarding `CC(C)Nc1nc(Nc2ccc(C(N)=O)cn2)cc2cc[nH]c(=O)c12` [compound 540], the IC50 worked out at 0.206 µM.

Take `CC(=O)N1CCN(CCc2ccc(Nc3nc(Nc4ccc(C)cn4)cc4cc[nH]c(=O)c34)cc2)CC1` [compound 541]: the IC50 was 1.12 µM.

For `[2H]C([2H])([2H])n1ccc2cc(Nc3cc(Cl)ccn3)nc(NC(C)(C)C)c2c1=O` [compound 542], the IC50 is 0.83 µM.

`Cn1ccc2cc(Nc3cc(Cl)ccn3)nc(NC3CCC3)c2c1=O` [compound 544]: the IC50 was 0.81 µM.

`Cc1ccc(Nc2cc3cc[nH]c(=O)c3c(Nc3ccc(N4CCOCC4)cc3)n2)nc1` [compound 545]: the IC50 stood at 3.85 µM.

As to `CCc1ccnc(Nc2cc3cc[nH]c(=O)c3c(Nc3ccc(CCN4CCN(CC)CC4)cc3)n2)c1` [compound 546], the IC50 came to 0.088 µM.

For the molecule `[2H]C([2H])([2H])n1ccc2cc(Nc3cc(C)c(F)cn3)nc(NC3CC3)c2c1=O` [compound 547], the IC50 worked out at 0.415 µM.

As for `[2H]C([2H])([2H])n1ccc2cc(Nc3cc(C)c(Cl)cn3)nc(NC3CC3)c2c1=O` [compound 548], the IC50 is 0.468 µM.

Take `Cc1ccnc(Nc2cc3cc[nH]c(=O)c3c(NC3CCN(C)CC3)n2)c1` [compound 550]: the IC50 turned out to be 0.111 µM.

On to `CCN1CCN(CCc2ccc(Nc3nc(Nc4ccccn4)cc4cc[nH]c(=O)c34)cc2)CC1` [compound 551], for which the IC50 was determined as 0.2 µM.

`Cc1ccc(Nc2cc3cc[nH]c(=O)c3c(Nc3ccc(CCN4CCCN(C)CC4)cc3)n2)nc1` [compound 552]: the IC50 came out at 0.39 µM.

For the molecule `Cc1ccnc(Nc2cc3cc[nH]c(=O)c3c(NC3CCN(Cc4ccccc4)C3)n2)c1` (stereo not drawn) [compound 553], the IC50 came out at 0.55 µM.

As to `Cc1ccnc(Nc2cc3cc[nH]c(=O)c3c(NCC3CCNCC3)n2)c1` [compound 554], the IC50 turned out to be 0.086 µM.

On to `CCN1CCN(CCc2ccc(Nc3nc(Nc4ccc(C(F)(F)F)cn4)cc4cc[nH]c(=O)c34)cc2)CC1` [compound 556], for which the IC50 turned out to be 0.631 µM.

On to `Cc1cc(Nc2nc(Nc3ccc(C#N)cn3)cc3cc[nH]c(=O)c23)ccc1N1CCO[C@H](C)C1` [compound 557], for which the half-maximal inhibitory concentration (IC50) worked out at 3.35 µM.

`Cc1ccc(Nc2cc3cc[nH]c(=O)c3c(Nc3ccc(C4CCN(CC(N)=O)CC4)c(C)c3)n2)nc1` [compound 558]: the IC50 was determined as 0.489 µM.

Take `NC(=O)c1ccnc(Nc2cc3cc[nH]c(=O)c3c(NC3CC3)n2)c1` [compound 559]: the IC50 worked out at 0.292 µM.

For the molecule `CC(C)Nc1nc(Nc2ccc(Cl)cn2)cc2cc[nH]c(=O)c12` [compound 560], the IC50 worked out at 0.611 µM.

Turning to `Cc1ccnc(Nc2cc3cc[nH]c(=O)c3c(NCCO)n2)c1` [compound 561], the IC50 was 0.501 µM.

On to `Cc1ccnc(Nc2cc3cc[nH]c(=O)c3c(NCCC3CCCN3C)n2)c1` (stereo not drawn) [compound 562], for which the IC50 came out at 0.288 µM.

In the case of `CCN1CCN(CCc2ccc(Nc3nc(Nc4ccc(C)cn4)cc4cc[nH]c(=O)c34)cc2)CC1` [compound 563], the IC50 was 0.43 µM.

As for `CCN1CCN(CCc2ccc(Nc3nc(Nc4ccc(C#N)cn4)cc4cc[nH]c(=O)c34)cc2)CC1` [compound 564], the IC50 was found to be 0.385 µM.

Turning to `O=c1[nH]ccc2cc(Nc3ccc([N+](=O)[O-])cn3)nc(Nc3ccc(N4CCOCC4)cc3)c12` [compound 565], the IC50 amounted to 0.71 µM.

Turning to `CCNc1nc(Nc2cc(C)ccn2)cc2cc[nH]c(=O)c12` [compound 566], the IC50 came to 0.803 µM.

Turning to `Cc1ccnc(Nc2cc3c(F)cn(C)c(=O)c3c(NC(C)C)n2)c1` [compound 567], the IC50 came to 0.978 µM.

On to `O=c1[nH]ccc2cc(Nc3ccc(CCN4CCOCC4)cn3)nc(Nc3ccc(N4CCOCC4)cc3)c12` [compound 568], for which the IC50 is 0.549 µM.

`Cc1ccnc(Nc2cc3ccn(C)c(=O)c3c(Nc3cc(C)ccn3)n2)c1` [compound 569]: the IC50 worked out at 0.701 µM.

Consider `CC(C)Nc1nc(Nc2ccc(C#N)cn2)cc2cc[nH]c(=O)c12` [compound 570], for which the IC50 amounted to 0.377 µM.

For `Cn1ccc2cc(Nc3ccccn3)nc(N)c2c1=O` [compound 572], the IC50 turned out to be 3.27 µM.

As to `Cn1ccc2cc(Nc3ccc(C#N)cn3)nc(N)c2c1=O` [compound 573], the IC50 amounted to 3.87 µM.

As for `Cn1ccc2cc(Nc3ccc(C(N)=O)cn3)nc(N)c2c1=O` [compound 574], the half-inhibitory concentration (IC50) was 0.142 µM.

As for `CCCNC(=O)c1ccc(Nc2cc3ccn(C)c(=O)c3c(N)n2)nc1` [compound 575], the IC50 came out at 2.61 µM.

On to `O=c1[nH]ccc2cc(Nc3ccc(F)cn3)nc(Nc3ccc(N4CCOCC4)cc3)c12` [compound 576], for which the IC50 came to 4.87 µM.

For `O=c1[nH]ccc2cc(Nc3ccc(C(F)(F)F)cn3)nc(Nc3ccc(N4CCOCC4)cc3)c12` [compound 577], the IC50 was found to be 0.76 µM.

On to `CCOC(=O)c1ccc(Nc2cc3cc[nH]c(=O)c3c(Nc3ccc(N4CCOCC4)cc3)n2)nc1` [compound 578], for which the IC50 came out at 0.186 µM.

For `CCN1CCN(CCc2ccc(Nc3nc(Nc4ccc(C(N)=O)cn4)cc4cc[nH]c(=O)c34)cc2)CC1` [compound 579], the IC50 turned out to be 0.113 µM.

For the molecule `CCN1CCN(CCc2ccc(Nc3nc(Nc4ccc(F)cn4)cc4cc[nH]c(=O)c34)cc2)CC1` [compound 580], the IC50 was 0.163 µM.

As to `CCN1CCN(CCc2ccc(Nc3nc(Nc4ccc(C(=O)O)cn4)cc4cc[nH]c(=O)c34)cc2)CC1` [compound 581], the IC50 worked out at 0.016 µM.

In the case of `Cc1ccc(Nc2cc3cc[nH]c(=O)c3c(Nc3ccc(N4CCO[C@H](C)C4)c(C)c3)n2)nc1` [compound 582], the IC50 was 2.22 µM.

Take `Cc1cc(Nc2nc(Nc3ccc(C(F)(F)F)cn3)cc3cc[nH]c(=O)c23)ccc1N1CCO[C@H](C)C1` [compound 583]: the IC50 is 8.44 µM.

With `Cc1ccnc(Nc2cc3cc[nH]c(=O)c3c(Nc3ccc(N4CCO[C@H](C)C4)c(C)c3)n2)c1` [compound 584], the IC50 worked out at 2.68 µM.

As for `CCN1CCN(CCc2ccc(Nc3nc(Nc4cc(C)ccn4)cc4cc[nH]c(=O)c34)cc2)CC1` [compound 585], the IC50 was determined as 0.081 µM.

Take `CCN1CCN(CCc2ccc(Nc3nc(Nc4cc(C(=O)O)ccn4)cc4cc[nH]c(=O)c34)cc2)CC1` [compound 586]: the IC50 was 0.226 µM.

In the case of `CC(C)Nc1nc(Nc2cc(C(=O)O)ccn2)cc2cc[nH]c(=O)c12` [compound 587], the IC50 stood at 0.226 µM.

As to `Cc1ccnc(Nc2cc3cc[nH]c(=O)c3c(NCCN(C)C)n2)c1` [compound 588], the IC50 stood at 1.96 µM.

Take `CCN1CCC[C@@H]1CNc1nc(Nc2cc(C)ccn2)cc2cc[nH]c(=O)c12` [compound 589]: the IC50 was 5.56 µM.

Consider `CCN1CCC[C@H]1CNc1nc(Nc2cc(C)ccn2)cc2cc[nH]c(=O)c12` [compound 590], for which the IC50 stood at 3.5 µM.

Regarding `Cc1ccnc(Nc2cc3cc[nH]c(=O)c3c(NCc3ccccc3)n2)c1` [compound 591], the IC50 is 5.68 µM.

As for `CCn1ccc2cc(Nc3cc(Cl)ccn3)nc(NCC(F)(F)F)c2c1=O` [compound 592], the IC50 amounted to 0.962 µM.

In the case of `O=c1c2c(NCC(F)(F)F)nc(Nc3cc(Cl)ccn3)cc2ccn1CCO` [compound 593], the IC50 is 0.271 µM.

Turning to `CC(C)Nc1nc(Nc2cc(-c3cnn(C)c3)ccn2)cc2cc[nH]c(=O)c12` [compound 595], the IC50 is 0.0879 µM.
